In patent publication US20260207602A1, “EGFR INHIBITORS” (Blueprint Medicines Corporation, priority 2022, published 2026):
Where two headings read alike, the source gives them in different places.

What was measured:
[1] = target: T1, EGFR L858R (Homo sapiens, UniProt P00533, L858R); experiment: Biochemical EGFR inhibition assay (Caliper mobility shift), EGFR L858R; conditions: read-out: Enz EGFR L858R IC50
T1 construct: purchased SignalChem E10-122BG
Procedure, shortened: (§1)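 Compounds were titrated against enzyme phosphorylating a 5-FAM peptide (2.5 µM) in 100 mM HEPES, pH 7.5, 10 mM MgCl2, 1 mM DTT. ATP was held at 1.0 mM or at Km, and reactions ran at 25 °C until 10–20% conversion before EDTA quench. Apparent IC50 values come from percent activity plotted against log concentration.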

[2] = target: T2, EGFR (d746-750) (Homo sapiens, UniProt P00533, DEL746-750); experiment: Biochemical EGFR inhibition assay (Caliper mobility shift), EGFR (d746-750); conditions: read-out: Enz EGFR Exon 19-del IC50
T2 construct: purchased SignalChem E10-122JG
Procedure, shortened: as §1

[3] = target: intracellular phosphorylation of EGFR (Tyr1068) in PC-9 cells (Homo sapiens, UniProt P00533, DEL746-750); experiment: PC-9 pEGFR AlphaLISA assay; type: cell-based; conditions: 4 hours incubation, read-out: Phos EGFR PC9 IC50
Procedure, shortened: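 PC-9 cells (EGFR del746-750) in phenol-free DMEM/10% FBS, adhered overnight, then exposed to 10-point 4-fold compound dilutions for 4 h at 37 °C. Lysates assayed for pEGFR Tyr1068 by AlphaLISA SureFire Ultra; IC50 from percent pEGFR inhibition vs log concentration.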

[4] = tested on: EGFR M+ NSCLC patients; conditions: first line (1L), NSCLC harboring del19 and L858R mutations; cited from earlier work
[5] = biochemical Caliper mobility shift assay, EGFR L858R enzyme
[6] = biochemical Caliper mobility shift assay, EGFR Exon 19-del enzyme

T2 sequence (P00533 with tags, fused parts or gaps DEL746-750 limits assumed): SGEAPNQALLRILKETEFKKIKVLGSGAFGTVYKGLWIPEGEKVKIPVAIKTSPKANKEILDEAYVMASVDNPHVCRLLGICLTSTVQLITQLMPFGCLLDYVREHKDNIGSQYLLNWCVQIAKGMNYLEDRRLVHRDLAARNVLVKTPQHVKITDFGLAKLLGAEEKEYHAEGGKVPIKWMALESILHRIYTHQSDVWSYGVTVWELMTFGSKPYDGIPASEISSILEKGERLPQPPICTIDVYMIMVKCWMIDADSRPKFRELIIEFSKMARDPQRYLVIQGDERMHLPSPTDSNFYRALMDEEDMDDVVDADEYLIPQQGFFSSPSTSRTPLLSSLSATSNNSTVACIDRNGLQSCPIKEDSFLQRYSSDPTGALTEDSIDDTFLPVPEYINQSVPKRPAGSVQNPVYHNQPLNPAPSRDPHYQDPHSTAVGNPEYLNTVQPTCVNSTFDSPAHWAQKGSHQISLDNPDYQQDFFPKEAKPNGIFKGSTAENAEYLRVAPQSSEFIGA
T1 sequence (P00533 25-1210 L858R): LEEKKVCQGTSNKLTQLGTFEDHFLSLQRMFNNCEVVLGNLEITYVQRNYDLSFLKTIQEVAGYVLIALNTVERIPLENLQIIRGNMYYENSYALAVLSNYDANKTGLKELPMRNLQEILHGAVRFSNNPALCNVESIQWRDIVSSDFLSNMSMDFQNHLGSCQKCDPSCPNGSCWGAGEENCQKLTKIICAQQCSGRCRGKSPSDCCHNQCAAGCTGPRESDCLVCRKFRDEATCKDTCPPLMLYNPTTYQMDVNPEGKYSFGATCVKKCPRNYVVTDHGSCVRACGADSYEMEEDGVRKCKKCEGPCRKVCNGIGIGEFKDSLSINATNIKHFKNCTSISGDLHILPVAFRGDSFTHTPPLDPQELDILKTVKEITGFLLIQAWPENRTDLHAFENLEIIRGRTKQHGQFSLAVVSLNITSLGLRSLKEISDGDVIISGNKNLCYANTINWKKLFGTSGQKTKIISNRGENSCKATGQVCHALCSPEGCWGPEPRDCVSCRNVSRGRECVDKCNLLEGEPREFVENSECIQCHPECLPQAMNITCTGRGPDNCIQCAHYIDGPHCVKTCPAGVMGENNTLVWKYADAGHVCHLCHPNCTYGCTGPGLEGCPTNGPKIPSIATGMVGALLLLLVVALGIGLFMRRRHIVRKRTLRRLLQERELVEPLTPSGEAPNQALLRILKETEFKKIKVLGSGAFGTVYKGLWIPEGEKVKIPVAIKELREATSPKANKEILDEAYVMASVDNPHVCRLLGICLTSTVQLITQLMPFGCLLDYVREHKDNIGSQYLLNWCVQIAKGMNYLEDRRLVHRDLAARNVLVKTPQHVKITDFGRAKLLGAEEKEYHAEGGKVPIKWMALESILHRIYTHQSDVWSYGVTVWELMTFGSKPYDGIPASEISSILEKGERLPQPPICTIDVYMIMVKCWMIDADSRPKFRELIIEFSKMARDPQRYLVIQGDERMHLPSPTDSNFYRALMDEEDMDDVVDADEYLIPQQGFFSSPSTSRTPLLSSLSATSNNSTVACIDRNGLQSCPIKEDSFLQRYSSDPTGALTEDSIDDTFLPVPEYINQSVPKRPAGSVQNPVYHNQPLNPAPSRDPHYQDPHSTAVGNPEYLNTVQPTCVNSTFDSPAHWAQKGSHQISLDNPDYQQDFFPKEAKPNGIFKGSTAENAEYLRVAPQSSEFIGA
intracellular phosphorylation of EGFR (Tyr1068) in PC-9 cells, sequence (P00533 with tags, fused parts or gaps DEL746-750): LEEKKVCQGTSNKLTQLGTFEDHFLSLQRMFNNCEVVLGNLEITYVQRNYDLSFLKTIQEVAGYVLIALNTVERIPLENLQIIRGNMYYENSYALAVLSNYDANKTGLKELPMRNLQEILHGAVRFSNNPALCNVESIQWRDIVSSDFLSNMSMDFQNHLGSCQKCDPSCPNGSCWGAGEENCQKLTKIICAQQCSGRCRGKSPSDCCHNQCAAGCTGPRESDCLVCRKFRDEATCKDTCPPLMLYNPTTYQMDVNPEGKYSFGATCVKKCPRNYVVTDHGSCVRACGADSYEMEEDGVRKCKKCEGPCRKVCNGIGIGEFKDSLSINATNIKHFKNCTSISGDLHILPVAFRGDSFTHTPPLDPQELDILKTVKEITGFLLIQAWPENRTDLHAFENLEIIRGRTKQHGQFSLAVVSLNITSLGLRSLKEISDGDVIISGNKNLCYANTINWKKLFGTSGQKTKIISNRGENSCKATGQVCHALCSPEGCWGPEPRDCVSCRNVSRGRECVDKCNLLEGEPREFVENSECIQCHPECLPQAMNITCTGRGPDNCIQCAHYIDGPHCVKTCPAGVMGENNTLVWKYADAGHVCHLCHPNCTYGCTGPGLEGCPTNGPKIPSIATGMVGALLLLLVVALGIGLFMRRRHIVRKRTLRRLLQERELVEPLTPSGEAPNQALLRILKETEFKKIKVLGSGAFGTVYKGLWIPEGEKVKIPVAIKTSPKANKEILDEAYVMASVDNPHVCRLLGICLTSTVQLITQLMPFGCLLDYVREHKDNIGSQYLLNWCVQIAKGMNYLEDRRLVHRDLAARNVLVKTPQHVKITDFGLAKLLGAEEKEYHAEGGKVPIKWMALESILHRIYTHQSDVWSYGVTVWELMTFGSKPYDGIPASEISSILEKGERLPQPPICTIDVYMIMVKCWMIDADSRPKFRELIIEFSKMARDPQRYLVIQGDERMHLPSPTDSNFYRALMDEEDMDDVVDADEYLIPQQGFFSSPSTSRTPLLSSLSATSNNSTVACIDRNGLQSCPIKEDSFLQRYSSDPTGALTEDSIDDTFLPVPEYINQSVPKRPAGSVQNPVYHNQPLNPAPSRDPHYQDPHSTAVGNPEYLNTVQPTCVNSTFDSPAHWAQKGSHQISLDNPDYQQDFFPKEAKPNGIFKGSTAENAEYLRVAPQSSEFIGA

| SMILES | IC50 [1, 5] [nM] | IC50 [2, 6] [nM] | IC50 [3] [nM] | IC50 [1] [nM] | IC50 [2] [nM] | progression-free survival (PFS) [4] [mo] |
| --- | --- | --- | --- | --- | --- | --- |
| COC[C@@H](C)Oc1cc(-n2cc([C@H](C)O)cn2)cc2ncnc(Nc3ccc4ncsc4c3F)c12 [Example A20, (S)-1-(1-(4-((7-fluorobenzo[d]thiazol-6-yl)amino)-5-(((R)-1-methoxypropan-2-yl)oxy)quinazolin-7-yl)-1H-pyrazol-4-yl)ethan-1-ol, OR (R)-1-(1-(4-((7-fluorobenzo[d]thiazol-6-yl)amino)-5-(((R)-1-methoxypropan-2-yl)oxy)quinazolin-7-yl)-1H-pyrazol-4-yl)ethan-1-ol] | ≤ 10 | ≤ 10 | ≤ 10 | – | – | – |
| CN1CCN(CC#Cc2cc(OC3CCOCC3)c3c(Nc4ccc5ncsc5c4F)ncnc3c2)CC1 [Example A24, 7-fluoro-N-(7-(3-(4-methylpiperazin-1-yl)prop-1-yn-1-yl)-5-((tetrahydro-2H-pyran-4-yl)oxy)quinazolin-4-yl)benzo[d]thiazol-6-amine] | > 50.1 | 10.1 to 50 | 10.1 to 50 | – | – | – |
| CN1CCC[C@H](Oc2cc(C#CCN3CCOCC3)cc3ncnc(Nc4ccc5ncsc5c4)c23)C1 [Example A25, N-(1,3-benzothiazol-6-yl)-5-{[(3S)-1-methylpiperidin-3-yl]oxy}-7-[3-(morpholin-4-yl)prop-1-yn-1-yl]quinazolin-4-amine] | – | – | 10.1 to 50 | < 10 | < 10 | – |
| COC[C@@H](C)Oc1cc(-n2cc(C(C)(C)O)cn2)cc2ncnc(Nc3ccc4ncsc4c3F)c12 [Example A26, (R)-2-(1-(4-((7-fluorobenzo[d]thiazol-6-yl)amino)-5-((1-methoxypropan-2-yl)oxy)quinazolin-7-yl)-1H-pyrazol-4-yl)propan-2-ol] | ≤ 10 | ≤ 10 | ≤ 10 | – | – | – |
| C=CC(=O)Nc1cc(Nc2nccc(-c3cn(C)c4ccccc34)n2)c(OC)cc1N(C)CCN(C)C [Osimertinib] | – | – | – | – | – | 18.9 |

The next lines start with results.

| IC50 [1, 5] [nM] | IC50 [2, 6] [nM] | IC50 [3] [nM] | SMILES | IC50 [1] [nM] | IC50 [2] [nM] | progression-free survival (PFS) [4] [mo] |
| --- | --- | --- | --- | --- | --- | --- |
| 10.1 to 50 | ≤ 10 | 10.1 to 50 | CN1CCC(Oc2cc(-c3cn(C)n(C(F)F)c3=O)cc3ncnc(Nc4ccc5ncsc5c4)c23)CC1 [Example A17, 4-(4-(benzo[d]thiazol-6-ylamino)-5-((1-methylpiperidin-4-yl)oxy)quinazolin-7-yl)-2-(difluoromethyl)-1-methyl-1,2-dihydro-3H-pyrazol-3-one] | – | – | – |
| 10.1 to 50 | ≤ 10 | 10.1 to 50 | CN1CCC(Oc2cc(-c3cn(C)nc3OC(F)F)cc3ncnc(Nc4ccc5ncsc5c4)c23)CC1 [Example A18, N-(7-(3-(difluoromethoxy)-1-methyl-1H-pyrazol-4-yl)-5-((1-methylpiperidin-4-yl)oxy)quinazolin-4-yl)benzo[d]thiazol-6-amine] | – | – | – |
| ≤ 10 | ≤ 10 | ≤ 10 | Cn1ccc(-c2cc3ncnc(Nc4ccc5ncsc5c4)c3cc2NC(=O)CCN2CCCCC2)n1 [Example A47, N-(4-(benzo[d]thiazol-6-ylamino)-7-(1-methyl-1H-pyrazol-3-yl)quinazolin-6-yl)-3-(piperidin-1-yl)propanamide] | – | – | – |
| ≤ 10 | ≤ 10 | ≤ 10 | C[C@@H](Oc1cc(-c2cnn(C)c2)cc2ncnc(Nc3ccc4ncsc4c3)c12)C(CO)CO [Example A56, (R)-2-(1-((4-(benzo[d]thiazol-6-ylamino)-7-(1-methyl-1H-pyrazol-4-yl)quinazolin-5-yl)oxy)ethyl)propane-1,3-diol] | – | – | – |
| ≤ 10 | ≤ 10 | 10.1 to 50 | OC(Cn1cc(-c2cc(OC3CCOCC3)c3c(Nc4ccc5ncsc5c4)ncnc3c2)cn1)C(F)(F)F (stereo not shown) [Example A57, 3-(4-(4-(benzo[d]thiazol-6-ylamino)-5-((tetrahydro-2H-pyran-4-yl)oxy)quinazolin-7-yl)-1H-pyrazol-1-yl)-1,1,1-trifluoropropan-2-ol] | – | – | – |
| ≤ 10 | ≤ 10 | 10.1 to 50 | Cn1cc(-c2cc(OC3COCOC3)c3c(Nc4ccc5ncsc5c4)ncnc3c2)cn1 [Example A59, N-(5-((1,3-dioxan-5-yl)oxy)-7-(1-methyl-1H-pyrazol-4-yl)quinazolin-4-yl)benzo[d]thiazol-6-amine] | – | – | – |
| 10.1 to 50 | ≤ 10 | 10.1 to 50 | CN(C)CCOc1cc(-c2cnn(C)c2)cc2ncnc(Nc3ccc4ncsc4c3)c12 [Example A60, N-(5-(2-(dimethylamino)ethoxy)-7-(1-methyl-1H-pyrazol-4-yl)quinazolin-4-yl)benzo[d]thiazol-6-amine] | – | – | – |
